Results from PMC6332334, “3-H-[1,2]Dithiole as a New Anti-Trypanosoma cruzi Chemotype: Biological and Mechanism of Action Studies” (Molecules, 2015).
Like-named read-outs stand apart in the source and are kept apart here.

Key:
[1] = system: epimastigotes of T. cruzi (Tulahuen 2 strain); set-up: method as in PMID 25512408; settings: reference trypanosomicidal drugs; read-out: IC50 against epimastigotes of T. cruzi (reference drugs); cited from earlier work
T. cruzi = settings: positive control of the sterol study; source not given; read-out: IC50 of terbinafine; cited from earlier work
[2] = system: membrane sterol biosynthesis in epimastigotes of Y strain of T. cruzi; test: Inhibition of membrane sterol biosynthesis (qualitative TLC); assay type: cell-based, Trypanosoma cruzi; settings: compounds at their IC50, 72 h, 28 °C, compared to control
Description: To do so, we analyzed the accumulation or depletion of some intermediates or final products of this biochemical pathway. Qualitative analyses were performed by thin layer chromatography (TLC).
The parasites, epimastigotes of Y strain of T. cruzi (DTU Tc II), were grown in 6 mL of BHT milieu in culture bottles. […] A negative control was performed with parasites in the absence of compounds. […] The extraction of membrane sterols was performed on completion of the incubation. For this purpose, the content of the culture bottle was centrifuged at 3000 rpm for 10 min, the supernatant was discarded and the pellet was suspended in sodium phosphate buffer solution (6 mL, 0.05 M, pH 7.4). Then it was centrifuged again at 3000 rpm for 10 min and the supernatant was discarded. The resulting pellet was resuspended in a chloroform/methanol (2:1) mixture (5 mL) and the suspension was kept at 4 °C for 12 h. Then, a saturated NaCl solution (5 mL) was added and the mixture extracted once with chloroform (3 mL) and once with hexane (3 mL) with care to avoid taking any aqueous phase. The extracted volume was applied to a silica gel TLC plate. Chromatography was performed eluting with hexane, two runs to identify squalene, and once with hexane/EtOAc (8:2) for ergosterol. […] Also, controls and commercial samples of ergosterol, lanosterol, cholesterol and squalene were run on the TLC plate. […]

[3] = system: epimastigotes of T. cruzi (Tulahuen 2 strain); test: Anti-T. cruzi test in vitro (epimastigote growth inhibition); assay type: cell-based, Trypanosoma cruzi; settings: for IC50: Trypanosoma cruzi, epimastigotes, Tulahuen 2 strain, triplicate, read-out: IC50 against T. cruzi
Description: (§1) To evaluate the anti-trypanosomal activity of the synthesized 3H-[1,2]dithioles we used T. cruzi, Tulahuen 2 strain (discrete typing unit, DTU, TcVI [18]) in the epimastigote form. […] To establish the selectivity of the compounds against the parasite, unspecific cytotoxicity against mammalian cells (J774.1 murine macrophages) was studied for the most relevant derivatives. The selectivity indexes (SI) were also determined (Table 1).
We used epimastigotes of the Tulahuen 2 strain (DTU, Tc VI) growing in an axenic milieu (BHI-Tryptose). Cells from a 5–7-day-old culture were inoculated in fresh culture milieu to give an initial concentration of 1 × 10^6 cells/mL. The absorbance at 600 nm of the cells in culture was measured every day. At day 5, the milieu was inoculated with different quantities of the compounds from a stock solution in DMSO (DMSO concentration in the culture milieu never exceeded 0.4%). The control was made in the presence of 0.4% DMSO and in the absence of compounds. […] At day 5, the absorbance of the culture was measured and related to the control. The IC50 value was taken as the concentration of drug needed to reduce the absorbance ratio to 50%.

cruzipain [4] = target: T1, cruzipain (Trypanosoma cruzi, UniProt P25779); test: Inhibition of T. cruzi cruzipain (Z-Phe-Arg-AMC fluorogenic substrate); assay type: biochemical; settings: percentage of enzymatic inhibition at 100 μM; read-out: Cruzipain % Inhib100
T1 construct: endogenous in cells; host or cells: T. cruzi epimastigotes, Tulahuen 2 strain
Description: Initially, we tested the dithioles as inhibitors of the protease cruzipain from T. cruzi at a concentration of 100 μM.
Cruzipain was purified to homogeneity from epimastigotes of the Tulahuen 2 strain by ConA-Sepharose affinity chromatography, as previously described. Cruzipain (2.5 μM ε = 58,285 M^−1·cm^−1) was incubated in 50 mM acetate buffer pH 5.5 with 50 mM DTT and 100 μM inhibitor was added, shaking the solution for 15 min at 27 °C. The derivatives were added diluted in DMSO, and the controls contained the same solvent concentration. The concentration of DMSO never exceeded 1% in the reaction medium. E-64 was used as a positive control of inhibition. Then, the fluorogenic substrate Z-Phe-Arg-AMC (100 μM) was added and the fluorescence was measured during 10 min at intervals of 3 s (excitation at 350 nm and emission at 460 nm) using a Varioskan Flash Spectrophotometer. From the slope of the negative control, we calculated the total (100%) enzyme activity, while the slopes obtained in the presence of the compounds yielded the percentage of remaining enzyme activity. The percentage of enzyme inhibition was determined as […]. The experiments were done in duplicate.

[5] = target: T2, Trypanosoma cruzi triosephosphate isomerase (TcTIM) (Trypanosoma cruzi, UniProt P52270); test: Inhibition of enzymatic activity of TcTIM; assay type: biochemical; settings: for inhibition at 25 µM: percentage of enzymatic inhibition at 25 μM, read-out: TcTIM % Inhib25; for inhibition at 200 µM: percentage of enzymatic inhibition at 200 μM, read-out: TcTIM % Inhib200
T2 construct: made in house; host or cells: Escherichia coli
Description: In order to investigate if the 3H-[1,2]dithioles inhibit TcTIM, we initially tested the inhibitory capacity of the compounds at a concentration of 200 μM and then at 25 μM.
Expression and purification of protein: TcTIM was expressed in Escherichia coli and purified as described in the literature. After purification, the enzyme, dissolved in 100 mM triethanolamine, 10 mM EDTA and 1 mM dithiothreitol (pH 8), was precipitated with ammonium sulfate (75% saturation) and stored at 4 °C. Before use, extensive dialysis against 100 mM triethanolamine/10 mM EDTA (pH 7.4) was performed. Protein concentration was determined by absorbance at 280 nm (ε = 36,440 M^−1·cm^−1).
Enzymatic activity assays. Enzymatic activity was determined following the conversion of glyceraldehyde 3-phosphate into dihydroxyacetone phosphate. The decrease in absorbance at 340 nm was followed in a multicell Cary spectrophotometer at 25 °C. The reaction mixture (1 mL, pH 7.4) contained 100 mM triethanolamine, 10 mM EDTA, 0.2 mM NADH, 1 mM glyceraldehyde 3-phosphate, and 0.9 units of α-glycerol phosphate dehydrogenase. The reaction was initiated by addition of 5 ng/mL of the TcTIM.
For inactivation studies, TcTIM was incubated at a concentration of 5 mg/mL in a buffer containing 100 mM triethanolamine, 10 mM EDTA, pH 7.4 and 10% of DMSO at 36 °C. The mixture also contained the compounds at the indicated concentrations. Compounds were dissolved in DMSO. After 2 h, […] was withdrawn and added to 1 mL of reaction mixture for the activity assay. None of the molecules tested here affected the activity of α-glycerol phosphate dehydrogenase, the enzyme used for trapping the product.
The IC50 value was taken as the concentration of drug needed to reduce the enzymatic activity to 50%. The experiments were performed in triplicate.

[6] = system: J774.1 murine macrophages; test: Unspecific in vitro cytotoxicity of mammalian cells (MTT); assay type: cell-based; settings: Mus musculus, 48 h exposure, read-out: IC50 against Macrophages
Description: as §1
J774.1 murine macrophage cells (ATCC, Manassas, VA, USA) were grown in DMEM culture milieu containing 4 mM L-glutamine and supplemented with 10% heat-inactivated fetal calf serum. […] Afterwards, cells were exposed for 48 h to the compounds (25–400 μM) or vehicle for control (0.4% DMSO), and additional controls (cells in medium) were used in each test. Cell viability was then assessed by measuring the mitochondria-dependent reduction of MTT (3-(4,5-dimethylthiazol-2-yl)-2,5-diphenyltetrazolium bromide) to formazan. For this purpose, MTT in sterile PBS (0.2% glucose) pH 7.4 was added to the macrophages to achieve a final concentration of 0.1 mg/mL and the cells were incubated at 37 °C for 3 h. After removing the medium, formazan crystals were dissolved in 180 μL of DMSO and 20 μL of MTT buffer (0.1 M glycine, 0.1 M NaCl, 0.5 mM EDTA, pH 10.5) and the absorbance at 560 nm was measured. The IC50 was defined as the drug concentration at which 50% of the cells were viable, relative to the control (no drug added), and was determined by analysis using OriginLab8.5® sigmoidal regression (% of viable cells vs. logarithm of the compound concentration). Samples were performed in triplicate.

[7] = system: T. cruzi cells (Y strain, DTU Tc II); test: 1H-NMR study of the excreted metabolites; assay type: cell-based, Trypanosoma cruzi
Description: To gain insight into the changes promoted by the active 3-propylidene[1,2]dithioles 2 and 14 in some biochemical pathways, the metabolites excreted by the parasite using ^1H-NMR spectroscopy were analyzed. Changes in the excreted metabolites by T. cruzi Y strain (DTU Tc II, [24]), when the parasite cells were exposed to a bioactive compound, could be indicative of the modification of the biochemical pathway(s) by the agents. Spectra of the cell-free milieu of treated parasites were compared with those of the untreated T. cruzi-free milieu as the control. We focused mainly on the changes of excreted salts of the carboxylic acids, lactate (Lac), acetate (Ace), pyruvate (Pyr), and succinate (Succ) and the amino acids, alanine (Ala) and glycine (Gly), among the most relevant modified metabolites.
For the ^1H-NMR spectroscopic studies, T. cruzi cells (Y strain, DTU Tc II) treated for 2 days, with each studied compound at concentrations corresponding to 2 × IC50 values (5 mL) were centrifuged at 1500× g for 10 min at 4 °C. The pellet was discarded, and the parasite-free supernatant was stored at −20 °C until use. Before measuring, DMF (0.1 mL, 10 mM) as the internal standard and D2O (0.1 mL) were added to the supernatant (0.3 mL). ^1H-NMR experiments were recorded at 20 °C on a Bruker Advance DPX-400 spectrometer (Bruker), operating at 400.132 MHz, with a 5 mm broadband inverse geometry probe. The acquisition parameters included: 90° pulse (zgpr, advance-version v 1.7.10.2, 1D sequence with f1 presaturation), 128 scans, and spectral width of 14.983 ppm. The acquisition time was 1.3664 s. Signal intensities were calculated by performing appropriate baseline corrections and then integrating the area under each of the resonances using MestRe-C NMR software. Spectra were analyzed using the Topspin 1.3 software package. The spectra were registered with water suppression in 5 mm NMR (Aldrich, St. Louis, MO, USA) sample tubes. The chemical displacements used to identify the respective metabolites were previously confirmed by adding each analyzed metabolite to the studied supernatant, as well as by the study of a control solution with 4 μg/mL of each metabolite in buffer (phosphate, pH = 7.4). Each run was done at least in triplicate and the Student t test was used to analyze the significance of the changes. […]

cruzipain [8] = target: T1, cruzipain; test: Inhibition of T. cruzi cruzipain (Z-Phe-Arg-AMC fluorogenic substrate); assay type: biochemical; settings: isolated enzyme
[9] = IC50 × 2, 2 days, DMF internal standard

T1 sequence (P25779 123-467): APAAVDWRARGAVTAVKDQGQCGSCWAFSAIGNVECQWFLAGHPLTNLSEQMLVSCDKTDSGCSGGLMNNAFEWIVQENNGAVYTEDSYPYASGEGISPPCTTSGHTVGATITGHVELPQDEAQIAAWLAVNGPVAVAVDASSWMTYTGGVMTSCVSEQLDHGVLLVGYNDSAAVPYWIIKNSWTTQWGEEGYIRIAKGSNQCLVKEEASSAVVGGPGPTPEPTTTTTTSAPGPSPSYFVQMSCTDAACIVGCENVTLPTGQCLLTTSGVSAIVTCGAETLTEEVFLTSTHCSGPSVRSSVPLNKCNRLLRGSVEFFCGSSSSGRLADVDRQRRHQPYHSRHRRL
T2 sequence (P52270 whole entry): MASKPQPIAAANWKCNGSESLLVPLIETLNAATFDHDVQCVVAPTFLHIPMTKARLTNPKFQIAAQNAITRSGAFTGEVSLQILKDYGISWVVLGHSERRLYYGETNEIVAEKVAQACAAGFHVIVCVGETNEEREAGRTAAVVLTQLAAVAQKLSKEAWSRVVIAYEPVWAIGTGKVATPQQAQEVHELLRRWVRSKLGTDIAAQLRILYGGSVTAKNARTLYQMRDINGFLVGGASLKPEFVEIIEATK

SMILES | IC50 [1] [µM] | IC50 [3] [µM] | inhibition at 100 µM (cruzipain [4]) [%] | inhibition at 25 µM [5] [%] | inhibition at 200 µM [5] [%] | IC50 [6] [µM] | other results
CC1CS(=O)(=O)CCN1/N=C/c1ccc([N+](=O)[O-])o1 (centres unmarked) [Nfx, nifurtimox] | 8 ± 1 | – | – | – | – | – | –
O=C(Cn1ccnc1[N+](=O)[O-])NCc1ccccc1 [Bnz, benznidazole] | 7 ± 1 | – | – | – | – | – | –
CN(C/C=C/C#CC(C)(C)C)Cc1cccc2ccccc12 [terbinafine, reference compound] | – | – | – | – | – | – | IC50 (T. cruzi): 44.7 µM; Changes in membrane sterols and intermediates (squalene, ergosterol) [2]: accumulate squalene and deplete ergosterol
O=C(CS/C(C(=O)c1ccc2ccccc2c1)=C1\C=C(c2ccc(O)cc2)SS1)c1ccc2ccccc2c1 [Derivative 14] | – | 4.9 ± 1.1 | 66.5 ± 0.3 | 38 ± 3.5 | 70 | 63 ± 2 | Concentration of excreted Ace [7, 9]: 26.41 ± 1.44; Concentration of excreted Ala [7, 9]: 20.65 ± 1.27; Concentration of excreted Gly [7, 9]: 2.48 ± 0.14; Concentration of excreted Lac [7, 9]: 10.41 ± 0.58; Concentration of excreted Pyr [7, 9]: 9.47 ± 0.53; Concentration of excreted Succ [7, 9]: 7.34 ± 0.65; Change of excreted metabolites compared to the control ([7]; IC50 × 2, p < 0.05 Student's t-test): did not modify the excreted catabolites
COc1ccc(C2=C/C(=C(\SCC(C)=O)C(C)=O)SS2)cc1 [Derivative 15] | – | 5.9 ± 1.2 | 85.4 ± 0.2 | 62 ± 3 | 86 | < 24 | SI (selectivity index) ([3]; macrophages (J774.1) vs T. cruzi epimastigotes): <4.1; IC50 (cruzipain [8]): 15.1 ± 2.5 µM
